Measured values: ChEMBL document CHEMBL1799910, “Optimization of 1,2,3,4-tetrahydroacridin-9(10H)-ones as antimalarials utilizing structure-activity and structure-property relationships” (J Med Chem, 2011)
pEC50: −log10 of the molar value. In brackets after ≈: the same amount, converted by molar mass.

Experiments:
[1] = Partition coefficient, log D of the compound at pH 7.4 by HPLC analysis; conditions: octanol/water
Plasmodium falciparum [2] = assay: Resistance index, ratio of EC50 for chloroquine, mefloquine, pyrimethamine and atovaquone-resistant Plasmodium falciparum TM90-C2B to EC50 for chloroquine and pyrimethamine-resistant Plasmodium falciparum W2; type: functional
[3] = Permeability of the compound by PAMPA method at pH 7.4; type: ADME; conditions: read-out: permeability
Liver = assay: (§1) Stability in mouse liver microsomes; type: ADME, Microsome; conditions: microsomes
[4] = Cytotoxicity index, ratio of EC50 for mouse J774 cells to EC50 for chloroquine, mefloquine, pyrimethamine and atovaquone-resistant Plasmodium falciparum TM90-C2B; type: cell-based; conditions: read-out: Ratio EC50
Plasmodium falciparum [5] = assay: Antimalarial activity against chloroquine and pyrimethamine-resistant Plasmodium falciparum W2 infected in human A positive erythrocytes after 72 hrs by SYBR Green I assay; type: functional, organism-based; conditions: W2, 72 h
J774 = assay: Cytotoxicity against mouse J774 cells after 72 hrs by Cell titer 96 aqueous one solution cell proliferation assay; type: cell-based; conditions: J774, 72 h
[6] = Aqueous solubility of compound at pH 7.4 by HPLC analysis; conditions: buffer
Plasmodium falciparum [7] = assay: Antimalarial activity against chloroquine, mefloquine, pyrimethamine and atovaquone-resistant Plasmodium falciparum TM90-C2B infected in human A positive erythrocytes after 72 hrs by SYBR Green I assay; type: functional, organism-based
[8] = as §1; type: ADME, Microsome; conditions: liver microsomes
Plasmodium falciparum [9] = assay: Antimalarial activity against Plasmodium falciparum D6 infected in human A positive erythrocytes after 72 hrs by SYBR Green I assay; type: functional, organism-based; conditions: D6, 72 h

Compound | logD [1] | Ratio EC50 (Plasmodium falciparum [2]) | Papp [3] | Stability (Liver) | selectivity ratio [4] | pEC50 (Plasmodium falciparum [5]) | pEC50 (J774) | solubility [6] | pEC50 (Plasmodium falciparum [7]) | half-life [8] | pEC50 (Plasmodium falciparum [9])
O=c1c2c([nH]c3ccc(-c4ccc(C(F)(F)F)cc4)cc13)CCCC2 | 3.6 | 0.77 | 36 ×10⁻⁶ cm/s | Stable | ≥ 100 | 7.24 | < 5.70 | 2 µM (≈ 0.687 µg/mL) | 7.35 |  | 
O=c1c2c([nH]c3cc(-c4ccc(C(F)(F)F)cc4)ccc13)CCCC2 | 2.45 | 0.24 | 250 ×10⁻⁶ cm/s | Stable | ≥ 100 | 7.46 | < 5.70 | 3 µM (≈ 1.03 µg/mL) | 8.06 |  | 
O=c1c2c([nH]c3cc(-c4ccc(Oc5ccc(OC(F)(F)F)cc5)cc4)ccc13)CCCC2 | 3.8 | 0.75 | 18 ×10⁻⁶ cm/s |  | ≥ 100 | 7.91 | < 7.00 | 0.1 µM (≈ 0.0451 µg/mL) | 8.04 | 2.89 h | 
COc1cc2[nH]c3c(c(=O)c2cc1Cl)CS(=O)(=O)CC3 | 1 | 1.76 |  | Stable | ≥ 100 | 5.33 | < 4.70 | 24 µM (≈ 7.53 µg/mL) | 5.08 |  | 
O=C1CC(c2ccc(C(F)(F)F)cc2)Cc2c1c(=O)c1cc(Cl)ccc1n2O (stereo not drawn) [FLOXACRINE] |  |  |  |  | ≥ 100 | 6.32 |  |  |  |  | 6.57
